Laboratory results: patent US20070219212A1, “Pyranouidole Derivatives and the Use Thereof for the Treatment of Hepatitis C Virus Infection or Disease” (priority 2004, published 2007)
Like-named read-outs stand apart in the source and are kept apart here.

Assays:
[1] = biological target: T1, NS5B from the BK strain (genotype 1b) (Hepatitis C virus genotype 1b, UniProt P26663); assay: Hepatitis C polymerase (NS5B, BK strain) inhibition, radioactive filter assay; assay type: biochemical; conditions: NS5B BK strain (genotype 1b)
T1 construct: NS5B from the BK strain (genotype 1b) is expressed in E coli as a protein in which the 21 C-terminal amino acids are replaced; made in house; host or cells: E. coli
T1 sequence (P26663 2420-2989): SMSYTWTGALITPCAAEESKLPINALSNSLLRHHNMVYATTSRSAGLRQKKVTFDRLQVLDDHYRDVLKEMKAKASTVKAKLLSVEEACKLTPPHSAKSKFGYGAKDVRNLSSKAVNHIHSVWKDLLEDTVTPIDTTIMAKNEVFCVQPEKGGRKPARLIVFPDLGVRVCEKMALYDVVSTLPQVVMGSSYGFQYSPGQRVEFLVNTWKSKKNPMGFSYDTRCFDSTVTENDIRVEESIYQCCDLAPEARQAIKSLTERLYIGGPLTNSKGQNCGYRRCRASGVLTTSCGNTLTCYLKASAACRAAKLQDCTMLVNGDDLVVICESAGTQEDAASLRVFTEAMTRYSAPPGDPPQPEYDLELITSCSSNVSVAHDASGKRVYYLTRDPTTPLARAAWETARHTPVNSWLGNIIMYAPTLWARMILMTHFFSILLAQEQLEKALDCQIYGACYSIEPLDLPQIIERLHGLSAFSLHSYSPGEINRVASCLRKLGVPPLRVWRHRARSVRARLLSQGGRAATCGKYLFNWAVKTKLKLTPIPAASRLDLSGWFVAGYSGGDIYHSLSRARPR
Method in brief: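 E. coli-expressed C-terminally truncated His-tagged NS5B preincubated 15 min with compound at room temperature, then run 2 h at 22-25 °C on a hairpin-primed heteropolymeric RNA template (~3 nM) with radioactive nucleotides. EDTA stop; ~760 nt 33P product captured on filters, washed with phosphate buffer pH 7.0, scintillation counted.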

[2] = biological target: BB7 RNA-dependent RNA polymerase hepatitis C virus protein (Con1 HCV sequence) (Hepatitis C virus genotype 1b, UniProt Q9WMX2); assay: Hepatitis C polymerase (BB7) inhibition; assay type: biochemical
BB7 RNA-dependent RNA polymerase hepatitis C virus protein (Con1 HCV sequence), sequence (Q9WMX2 2420-3010): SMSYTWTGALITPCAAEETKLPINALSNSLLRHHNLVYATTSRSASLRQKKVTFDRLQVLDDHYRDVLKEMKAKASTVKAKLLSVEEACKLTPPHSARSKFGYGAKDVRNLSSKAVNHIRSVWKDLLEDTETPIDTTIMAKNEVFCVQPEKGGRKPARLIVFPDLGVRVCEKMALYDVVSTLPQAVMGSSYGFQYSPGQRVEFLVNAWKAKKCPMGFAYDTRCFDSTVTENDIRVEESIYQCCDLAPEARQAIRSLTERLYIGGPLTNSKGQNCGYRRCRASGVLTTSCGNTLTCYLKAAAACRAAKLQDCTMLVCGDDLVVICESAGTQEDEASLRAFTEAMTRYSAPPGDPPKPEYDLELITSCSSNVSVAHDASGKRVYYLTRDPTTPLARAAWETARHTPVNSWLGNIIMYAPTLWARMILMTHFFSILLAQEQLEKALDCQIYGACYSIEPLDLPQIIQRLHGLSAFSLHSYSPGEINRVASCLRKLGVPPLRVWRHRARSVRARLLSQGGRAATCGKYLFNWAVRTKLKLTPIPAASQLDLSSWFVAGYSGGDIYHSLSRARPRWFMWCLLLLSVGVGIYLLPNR
Method in brief: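 Con1 (BB7) replicon-derived NS5B polymerase preincubated with compound (15% DMSO) 15 min at room temperature, then RNA template (~3 nM pOF) and nucleotides added. Reaction run 2 h at 22-25° C., stopped with EDTA (85 mM final). ^33P-labelled product captured on filters, washed with 0.5 M sodium phosphate pH 7.0, scintillation counted.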

[3] = BB7 (Con1) NS5B, read-out: BB7 IC50

Compound | IC50 [1] [nM] | IC50 [2] [nM] | IC50 ([2]; read-out: BB7 IC50, BB7 (Con1) NS5B) [nM] | IC50 [2, 3] [nM]
CCCC1(CC(=O)O)OCCc2c1[nH]c1c(C)c(OCc3ccnc(NS(C)(=O)=O)c3)cc(C#N)c21 (stereo not drawn) [Example 96] | < 500 | < 500 | – | –
CCCC1(CC(=O)O)OCCc2c1[nH]c1c(C)c(OC[C@@H]3CCC(=O)N3)cc(C#N)c21 (stereo partly drawn) [Example 97] | < 500 | < 500 | – | –
CCCC1(CC(=O)O)OCCc2c1[nH]c1c(C)c(OCC(C)=O)cc(C#N)c21 (stereo not drawn) [Example 98] | 500 to 5000 | < 500 | – | –
CCCC1(CC(=O)O)OCCc2c1[nH]c1c(C)c(OCC(C)=NOC)cc(C#N)c21 (stereo not drawn) [Example 100] | < 500 | < 500 | – | –
CCCC1(CC(=O)O)OCCc2c1[nH]c1c(C)c(OC[C@H]3CCC(=O)N3)cc(C#N)c21 (stereo partly drawn) [Example 101] | < 500 | < 500 | – | –
CCCC1(CC(=O)O)OCCc2c1[nH]c1c(C)c(OCC(C)O)cc(C#N)c21 (stereo not drawn) [Example 102] | < 500 | < 500 | – | –
CCCC1(CC(=O)O)OCCc2c1[nH]c1c(C)c(OCC(=O)NC)cc(C#N)c21 (stereo not drawn) [Example 103] | < 500 | < 500 | – | –
CCCC1(CC(=O)O)OCCc2c1[nH]c1c(C)c(OCC(C)=NOCC)cc(C#N)c21 (stereo not drawn) [Example 104] | < 500 | < 500 | – | –
CCCC1(CC(=O)O)OCCc2c1[nH]c1c(C)c(OCC(C)=NOCC)cc(C#N)c21 (stereo not drawn) [Example 105] | < 500 | – | < 500 | –
CCCC1(CC(=O)O)OCCc2c1[nH]c1c(C)c(OCC3CCSCC3)cc(C#N)c21 (stereo not drawn) [Example 106] | < 500 | < 500 | – | –
CCCC1(CC(=O)O)OCCc2c1[nH]c1c(C)c(OCC3CCS(=O)(=O)CC3)cc(C#N)c21 (stereo not drawn) [Example 107] | < 500 | < 500 | – | –
CCCC1(CC(=O)O)OCCc2c1[nH]c1c(C)c(OCC3CCOCC3)cc(C#N)c21 (stereo not drawn) [Example 108] | < 500 | – | – | < 500
CCCC1(CC(=O)O)OCCc2c1[nH]c1c(C)c(OCc3cc(C)nc(C)c3)cc(C#N)c21 (stereo not drawn) [Example 109] | < 500 | – | – | < 500
CCCC1(CC(=O)O)OCCc2c1[nH]c1c(C)c(OCc3nccn3C)cc(C#N)c21 (stereo not drawn) [Example 110] | < 500 | < 500 | – | –
CCCC1(CC(=O)O)OCCc2c1[nH]c1c(C)c(OCCOCC)cc(C#N)c21 (stereo not drawn) [Example 111] | < 500 | < 500 | – | –
CCCC1(CC(=O)O)OCCc2c1[nH]c1c(C)c(OCCOC(C)C)cc(C#N)c21 (stereo not drawn) [Example 112] | < 500 | < 500 | – | –
CCCC1(CC(=O)O)OCCc2c1[nH]c1c(C)c(OCOC)cc(C#N)c21 (stereo not drawn) [Example 113] | < 500 | < 500 | – | –
CCCC1(CC(=O)O)OCCc2c1[nH]c1c(C)c(OCCN(C)Cc3ccccc3)cc(C#N)c21 (stereo not drawn) [Example 114] | < 500 | < 500 | – | –
CCCC1(CC(=O)O)OCCc2c1[nH]c1c(C)c(OCCOCCOC)cc(C#N)c21 (stereo not drawn) [Example 115] | < 500 | – | – | < 500
CCCC1(CC(=O)O)OCCc2c1[nH]c1c(C)c(OCc3nnnn3C)cc(C#N)c21 (stereo not drawn) [Example 116] | < 500 | < 500 | – | –
CCCC1(CC(=O)O)OCCc2c1[nH]c1c(C)c(OCCOCc3ccccc3)cc(C#N)c21 (stereo not drawn) [Example 117] | < 500 | < 500 | – | –
CCC[C@]1(CC(=O)O)OCCc2c1[nH]c1c(C)c(OCCOCC)cc(C#N)c21 [Example 118] | < 500 | < 500 | – | –
CCCC1(CC(=O)O)OCCc2c1[nH]c1c(C)c(OCCCOC)cc(C#N)c21 (stereo not drawn) [Example 119] | < 500 | < 500 | – | –
CCCC1(CC(=O)O)OCCc2c1[nH]c1c(C)c(OCCOCC3CC3)cc(C#N)c21 (stereo not drawn) [Example 120] | < 500 | – | – | < 500

Compound | IC50 [1] [nM] | IC50 [2] [nM] | IC50 ([2]; read-out: BB7 IC50, BB7 (Con1) NS5B) [nM] | IC50 [2, 3] [nM]
CCCC1(CC(=O)O)OCCc2c1[nH]c1c(C)c(OCC(C)OC)cc(C#N)c21 (stereo not drawn) [Example 121] | < 500 | < 500 | – | –
CCCC1(CC(=O)O)OCCc2c1[nH]c1c(C)c(OCC3CCN(S(C)(=O)=O)CC3)cc(C#N)c21 (stereo not drawn) [Example 122] | < 500 | < 500 | – | –
CCCC1(CC(=O)O)OCCc2c1[nH]c1c(C)c(OCC3CN(S(C)(=O)=O)C3)cc(C#N)c21 (stereo not drawn) [Example 123] | < 500 | < 500 | – | –
CCCC1(CC(=O)O)OCCc2c1[nH]c1c(C)c(OCc3ccon3)cc(C#N)c21 (stereo not drawn) [Example 124] | < 500 | < 500 | – | –
CCC[C@]1(CC(=O)O)OCCc2c1[nH]c1c(C)c(OCc3conc3C)cc(C#N)c21 [Example 125] | < 500 | < 500 | – | –
CCCC1(CC(=O)O)OCCc2c1[nH]c1c(C)c(OCc3cc(C(F)(F)F)n(C)n3)cc(C#N)c21 (stereo not drawn) [Example 126] | < 500 | < 500 | – | –
CCCC1(CC(=O)O)OCCc2c1[nH]c1c(C)c(OCc3cc(C4CC4)on3)cc(C#N)c21 (stereo not drawn) [Example 127] | < 500 | – | – | < 500
CCCC1(CC(=O)O)OCCc2c1[nH]c1c(C)c(OCc3cc(C)[nH]n3)cc(C#N)c21 (stereo not drawn) [Example 128] | < 500 | < 500 | – | –
CCCC1(CC(=O)O)OCCc2c1[nH]c1c(C)c(OCc3cc(C(F)(F)F)n[nH]3)cc(C#N)c21 (stereo not drawn) [Example 129] | < 500 | – | – | < 500
CCCC1(CC(=O)O)OCCc2c1[nH]c1c(C)c(OCc3cc(C4CC4)n(C)n3)cc(C#N)c21 (stereo not drawn) [Example 130] | < 500 | < 500 | – | –
CCCC1(CC(=O)O)OCCc2c1[nH]c1c(C)c(OCc3nsc(N(CC)CC)n3)cc(C#N)c21 (stereo not drawn) [Example 132] | < 500 | < 500 | – | –
CCCC1(CC(=O)O)OCCc2c1[nH]c1c(C)c(OCc3nnc(C)s3)cc(C#N)c21 (stereo not drawn) [Example 133] | < 500 | < 500 | – | –
CCCC1(CC(=O)O)OCCc2c1[nH]c1c(C)c(OCc3nsc(OCC)n3)cc(C#N)c21 (stereo not drawn) [Example 134] | < 500 | – | – | < 500
CCCC1(CC(=O)O)OCCc2c1[nH]c1c(C)c(OCCCc3cc(C)on3)cc(C#N)c21 (stereo not drawn) [Example 135] | < 500 | < 500 | – | –
CCCC1(CC(=O)O)OCCc2c1[nH]c1c(C)c(OCc3nsc(N(C)C)n3)cc(C#N)c21 (stereo not drawn) [Example 136] | < 500 | – | – | < 500
CCCC1(CC(=O)O)OCCc2c1[nH]c1c(C)c(OCc3ccn(CC)n3)cc(C#N)c21 (stereo not drawn) [Example 137] | < 500 | < 500 | – | –
CCCC1(CC(=O)O)OCCc2c1[nH]c1c(C)c(OCc3cc(CC)n(CC)n3)cc(C#N)c21 (stereo not drawn) [Example 138] | < 500 | – | – | < 500
CCCC1(CC(=O)O)OCCc2c1[nH]c1c(C)c(OCc3cc(CC)n(C)n3)cc(C#N)c21 (stereo not drawn) [Example 139] | < 500 | < 500 | – | –
CCCC1(CC(=O)O)OCCc2c1[nH]c1c(C)c(OCc3cc(C)n(CC)n3)cc(C#N)c21 (stereo not drawn) [Example 140] | < 500 | < 500 | – | –
CCCC1(CC(=O)O)OCCc2c1[nH]c1c(C)c(OC[C@@H](C)OC)cc(C#N)c21 (stereo partly drawn) [Example 141] | < 500 | < 500 | – | –
CCCC1(CC(=O)O)OCCc2c1[nH]c1c(C)c(OCCCSC)cc(C#N)c21 (stereo not drawn) [Example 142] | < 500 | < 500 | – | –
CCCC1(CC(=O)O)OCCc2c1[nH]c1c(C)c(OCCCS(C)(=O)=O)cc(C#N)c21 (stereo not drawn) [Example 143] | < 500 | – | – | < 500
(7-Benzyloxymethyl-5-cyano-8-methyl-1-propyl-1,3,4,9-tetrahydro-pyrano[3,4-b]indol-1-yl)-acetic acid [Example 15] | < 500 | – | – | < 500
[5-Cyano-8-methyl-1-propyl-7-(tetrahydro-pyran-4-ylmethoxymethyl)-1,3,4,9-tetrahydro-pyrano[3,4-b]indol-1-yl]-acetic acid [Example 12] | 500 to 5000 | – | – | 500 to 5000
